{"source": "patent US6001880A", "about": "“Alkylenediamine derivative, anti-ulcer drug, and antibacterial drug” (Shiseido Co., Ltd., priority 1997, dated 1999)"}
{"test_system": "stress ulcer formation in rats", "experiment": "WIS: Restraint and Water Immersion Stress-Induced Ulcer Inhibition Test", "assay_type": "in vivo, rat (male Crj:SD or Slc:SD)", "conditions": "100 mg/kg oral, 10 minutes before 7 h restraint and water immersion (21° C.)", "description": "WIS: Restraint and Water Immersion Stress-Induced Ulcer Inhibition Test\nThe degree of inhibition of the stress ulcer formation is tested.\nMale Crj:SD or Slc:SD rats (6 to 7-week-old) were fasted overnight, but allowed free access to water. Each group has 5 to 8 of these rats. The sample compound was dissolved or suspended in an aqueous solution of 0.3% sodium carboxymethylcellulose or 0.05% Tween 80 and then was orally administered (100 mg/10 ml/kg). To a control group, the vehicle was administered. 10 minutes later, the rats were placed in a stress cage and immersed to the level of xipfoid process in a water bath (21° C.) for 7 hours. At the end of the stress, the rats were sacrificed by inhalation of ether or carbon dioxide. Then, the stomach of each was removed, inflated by injecting 10 ml of 5% formalin neutral buffer solution, and immersed in 1% formalin neutral buffer solution for 30 minutes or more to be fixed. The stomach was incised along the greater curvature and then the length of each erosion in the glandular portion was determined under dissecting microscope. The sum of the length of erosions per stomach was defined as ulcer index (UI).\nThe effect obtained when 100 mg/kg of the sample compound had been administered was expressed as ulcer formation inhibitory rate (%) as follows:\nulcer formation inhibitory rate (%)=(1-(UI in sample group/UI in control", "units": {"WIS: ulcer formation inhibitory rate": "%"}}
{"molecule": "CCN(CC)CCNC(=O)c1ccc(OC/C=C(\\C)CCC=C(C)C)nc1", "note": "[Example 50]", "WIS: ulcer formation inhibitory rate": 42}
{"molecule": "CCN(CC)CCNC(=O)c1ccc(OC/C=C(\\C)CCC=C(C)C)cc1OC/C=C(\\C)CCC=C(C)C", "note": "[Example 15]", "WIS: ulcer formation inhibitory rate": 92}
{"molecule": "CCN(CC)CCNC(=O)c1ccc(OCC=C(C)C)cc1OCC=C(C)C", "note": "[Example 20]", "WIS: ulcer formation inhibitory rate": 67}
{"molecule": "CCN(CC)CCNC(=O)c1ccccc1SC/C=C(\\C)CCC=C(C)C", "note": "[Example 25]", "WIS: ulcer formation inhibitory rate": 82}
{"molecule": "CCN(CC)CCNC(=O)c1ccc(OC)cc1OC/C=C(\\C)CCC=C(C)C", "note": "[Example 32]", "WIS: ulcer formation inhibitory rate": 73}
{"molecule": "CC(C)=CCC/C(C)=C/CN(C/C=C(\\C)CCC=C(C)C)c1ccc(C(=O)NCCN(C(C)C)C(C)C)cc1", "note": "[Example 27]", "WIS: ulcer formation inhibitory rate": 45}
{"molecule": "CC(C)N(CCNC(=O)c1cccc(CN2CCCCC2)c1)C(C)C", "note": "[Example 66]", "WIS: ulcer formation inhibitory rate": 53}
{"molecule": "CCN(CC)CCNC(=O)c1cc(F)ccc1OC/C=C(\\C)CCC=C(C)C", "note": "[Example 35]", "WIS: ulcer formation inhibitory rate": 81}
{"molecule": "CCN(CC)CCNC(=O)c1cc(OCC=C(C)C)ccc1OCC=C(C)C", "note": "[Example 21]", "WIS: ulcer formation inhibitory rate": 77}
{"molecule": "CC(C)=CCC/C(C)=C/COc1ccc(C(=O)NCCN(C(C)C)C(C)C)cn1", "note": "[Example 51]", "WIS: ulcer formation inhibitory rate": 72}
{"molecule": "CC(C)N(CCNC(=O)c1ccc(NC(C)(C)C)cc1)C(C)C", "note": "[Example 68]", "WIS: ulcer formation inhibitory rate": 79}
{"test_system": "not listed separately", "experiment": "MTT: Cell Damaging and Protecting Effect Test", "assay_type": "cell-based, rabbit (male Japanese White)", "conditions": "rabbit, gastric corpus mucosa cells, final concentration 10^-4 M, smaller value is better, read-out: MTT: cell damaging rate", "excerpt": "MTT: Cell Damaging and Protecting Effect Test\nIt is confirmed that there is no toxicity in cell level. Those having a toxicity in cell level are inappropriate as an anti-ulcer drug.\nA male Japanese White rabbit (2.5 to 3 kg) was anesthetized to death by Nembutal™ and, immediately thereafter, its stomach was removed. The greater curvature of the stomach was incised so as to remove the stomach contents therefrom. After the mucosal surface was washed with HBSS (Hanks' Balanced Salt Solution), the stomach in ice-cooled HBSS was transferred to a laboratory. Then, after the pyloric antrum was removed, the gastric corpus mucosa was separated by a spatula and then minced into 2 to 3 mm^3 pieces in BME (Basal Medium Eagle). Thereafter, these pieces were shaken at 120 to 130 cycles/minute for 15 minutes at 37° C. in BME 60 ml containing 280 U/ml of dispase and 30 to 50 U/ml of collagenase. Here, the concentration of collagenase was appropriately changed for each lot in view of the state of cells. The pieces were washed twice with EBSS (Earle's Balanced Salt Solution) containing 1 mM of EDTA and then shaken in MEM (Minimum Essential Medium) containing 1 mM of EDTA at 37° C. for 5 minutes. Subsequently, they were shaken in the dispase and collagenase having the same concentrations as those mentioned above for 15 minutes so as to remove the supernatant and then further shaken at 37° C. for 50 to 60 minutes at 120 to 130 cycles/minute. Then, after being washed twice with HBSS, Ham F12 containing 2% of Ultrocer G™ was used to attain the concentration of 1×10^6 cells/ml. Thus formed suspension was dispensed in each well of a 96-well plate by 200 μl. The plate was incubated in the atmosphere composed of 5% CO2 and 95% air at 37° C. for three days so as to attain a confluent state and then subjected to MTT assay.\nThe sample compound was dissolved in DMSO so as to attain a concentration of 10^-2 M and then diluted with HBSS containing 2% of Ultrocer G™ so as to attain a final concentration of 10^-4 M. To each group, which 8 wells were used for, 10 μl of MTT reagent was added immediately after 100 μl of the medium in each well was exchanged for same volume of the resulting solution of the sample compound. After being incubated in an atmosphere composed of 5% CO2 and 95% air at 37° C. for 4 hours, thus formed solution was centrifuged and then its supernatant was discarded. Subsequently, 100 μl of 100% ethanol was added to the residue so as to dissolve MTT formazan. Then, the absorbance (OD: 570 to 630) was measured by a microplate reader. This method utilizes a phenomenon in which MTT is changed to MTT formazan only by mitochondria of living cells so as to change color.\nThe cell damaging or cell protecting effect of the sample compound at the final concentration of 10^-4 M was expressed as cell damaging rate (%) as follows:\ncell damaging rate (%)=(1-(absorbance in sample group/absorbance in control\nAccordingly, the smaller value is better in the cell damaging rate.", "units": {"cytotoxicity at 4 h, 100 µM": "%"}}
{"molecule": "CCN(CC)CCNC(=O)c1ccc(OC/C=C(\\C)CCC=C(C)C)nc1", "note": "[Example 50]", "cytotoxicity at 4 h, 100 µM": 4}
{"molecule": "CCN(CC)CCNC(=O)c1ccc(OC/C=C(\\C)CCC=C(C)C)cc1OC/C=C(\\C)CCC=C(C)C", "note": "[Example 15]", "cytotoxicity at 4 h, 100 µM": 44}
{"molecule": "CCN(CC)CCNC(=O)c1ccc(OCC=C(C)C)cc1OCC=C(C)C", "note": "[Example 20]", "cytotoxicity at 4 h, 100 µM": 28}
{"molecule": "CCN(CC)CCNC(=O)c1ccccc1SC/C=C(\\C)CCC=C(C)C", "note": "[Example 25]", "cytotoxicity at 4 h, 100 µM": 19}
{"molecule": "CCN(CC)CCNC(=O)c1ccc(OC)cc1OC/C=C(\\C)CCC=C(C)C", "note": "[Example 32]", "cytotoxicity at 4 h, 100 µM": 28}
{"molecule": "CC(C)=CCC/C(C)=C/CN(C/C=C(\\C)CCC=C(C)C)c1ccc(C(=O)NCCN(C(C)C)C(C)C)cc1", "note": "[Example 27]", "cytotoxicity at 4 h, 100 µM": 39}
{"molecule": "CC(C)N(CCNC(=O)c1cccc(CN2CCCCC2)c1)C(C)C", "note": "[Example 66]", "cytotoxicity at 4 h, 100 µM": 12}
{"molecule": "CCN(CC)CCNC(=O)c1cc(F)ccc1OC/C=C(\\C)CCC=C(C)C", "note": "[Example 35]", "cytotoxicity at 4 h, 100 µM": 25}
{"molecule": "CCN(CC)CCNC(=O)c1cc(OCC=C(C)C)ccc1OCC=C(C)C", "note": "[Example 21]", "cytotoxicity at 4 h, 100 µM": 36}
{"molecule": "CC(C)=CCC/C(C)=C/COc1ccc(C(=O)NCCN(C(C)C)C(C)C)cn1", "note": "[Example 51]", "cytotoxicity at 4 h, 100 µM": 15}
{"molecule": "CC(C)N(CCNC(=O)c1ccc(NC(C)(C)C)cc1)C(C)C", "note": "[Example 68]", "cytotoxicity at 4 h, 100 µM": -58}
{"test_system": "isolated gastric fundic gland", "experiment": "CAP: Acid Secretion Inhibition Test In Vitro ([14C]-aminopyrine uptake)", "assay_type": "cell-based, rabbit (male Japanese White)", "conditions": "Oryctolagus cuniculus; final concentration 10^-5 M; histamine 10^-5 M stimulation; read-out: CAP: acid secretion inhibitory rate", "description": "CAP: Acid Secretion Inhibition Test In Vitro\nThe acid secretion inhibitory activity in a cell level is studied. It can also be used for studying the mechanism of the effect.\nFirst, an isolated gastric fundic gland sample was prepared. Namely, a male Japanese White rabbit (2.5 to 3 kg) was anesthetized to death with Nembutal™ and then the abdomen was incised. Immediately thereafter, the stomach was removed and, after its pyloric and cardiac antrum were severed, incised along its greater curvature into two sheets. The gastric contents adhering to the mucosal surface was washed out with ice-cooled PBS (-) and then carefully washed therein. The gastric wall was spread on a cork board with its mucosal surface facing up and the feed and mucus thereon were completely removed with sterile gauze. The mucosa was separated therefrom by a spatula and then collected in ice-cooled PBS (-). After being washed twice with PBS (-), the mucosa was minced into 2-3 mm^3 pieces by scissors. These pieces were further washed twice with a nutrient solution. The nutrient solution comprises 132.4 mM of NaCl, 5.4 mM of KCl, 5 mM of Na2 HPO4. 12H2 O, 1 mM of NaH2 PO4.2H2 O, 1.2 mM of MgSO4, 1 mM of CaCl2, 25 mM of HEPES, 2 mg/ml of glucose, and 1 mg/ml of BSA.\nInto 70 ml of the nutrient solution containing 1 mg/ml of collagenase, minced mucosal pieces were dispersed and intensely stirred in a conical flask with a stirrer at 37° C. for 40 to 60 minutes. During this period, 100% O2 was sprayed on the nutrient solution surface and the pH was appropriately measured such that it was immediately adjusted to pH 7.4, when the value was therebelow, with a base. The nutrient solution was added to the reaction solution so as to attain the total amount of about 200 ml. After being filtered through a mesh, the suspension was divisionally introduced into 50 ml centrifuge tubes and left for 15 minutes such that gastric fundic gland was deposited. The supernatant was repeatedly removed by an aspirator, dispersed in the nutrient solution, and then left such that the gastric fundic gland was washed three times. At this time, without using a pipette, the suspension was alternately introduced into two centrifuge tubes so as to effect dispersion. The number of cells was counted under microscope and adjusted to 1.6×10^6 cells/ml.\nThen, [^14 C]-aminopyrine uptake test was performed. After an Eppendorf tube was weighed, 10 μl (final concentration: 10^-5 M) of histamine dissolved in the above-mentioned nutrient solution, 10 μl (final concentration: […]) of the test compound dissolved in DMSO, and 10 μl (final concentration: 0.05 μCi/ml) of [^14 C]-aminopyrine diluted with the nutrient solution were introduced therein and then 970 μl of the isolated gastric fundic gland suspension prepared above was added thereto. Subsequently, this mixture was shaken at 37° C. for 40 minutes at 125 cycles/minute. After being centrifuged for 30 seconds, 200 μl of its supernatant was collected into a mini-vial, while the rest was removed by an aspirator. The gland pellet was completely dried as the tube with its lid being opened was kept for one night in a drying oven at 80° C. and then the lid was closed and the weight was determined at room temperature. Then 100 μl of 1N KOH was added thereto and the tube with its lid being closed was treated at 60° C. for 1 to 2 hours so as to dissolve the pellet. Then, the contents thereof were transferred to a mini-vial. Into the mini-vial containing the supernatant or gland pellet, 4 ml of Atomlite™ was added and then the radioactivity was measured by a liquid scintillation counter. Here, after the radioactivity of the gland pellet was corrected by using a sample in which 20 mM of NaSCN was added so as to cancel the hydrogen ion concentration gradient, the integration ratio of aminopyrine specifically trapped by the gland pellet was calculated. This experiment was performed in duplicate.\nHere, its principle will be briefly explained. […]", "units": {"inhibition at 10 µM": "%"}}
{"molecule": "CCN(CC)CCNC(=O)c1ccc(OC/C=C(\\C)CCC=C(C)C)nc1", "note": "[Example 50]", "inhibition at 10 µM": 95.2}
{"molecule": "CCN(CC)CCNC(=O)c1ccc(OC/C=C(\\C)CCC=C(C)C)cc1OC/C=C(\\C)CCC=C(C)C", "note": "[Example 15]", "inhibition at 10 µM": 96.5}
{"molecule": "CCN(CC)CCNC(=O)c1ccc(OCC=C(C)C)cc1OCC=C(C)C", "note": "[Example 20]", "inhibition at 10 µM": 100}
{"molecule": "CCN(CC)CCNC(=O)c1ccccc1SC/C=C(\\C)CCC=C(C)C", "note": "[Example 25]", "inhibition at 10 µM": 96.1}
{"molecule": "CCN(CC)CCNC(=O)c1ccc(OC)cc1OC/C=C(\\C)CCC=C(C)C", "note": "[Example 32]", "inhibition at 10 µM": 100}
{"molecule": "CC(C)=CCC/C(C)=C/CN(C/C=C(\\C)CCC=C(C)C)c1ccc(C(=O)NCCN(C(C)C)C(C)C)cc1", "note": "[Example 27]", "inhibition at 10 µM": 38.5}
{"molecule": "CC(C)N(CCNC(=O)c1cccc(CN2CCCCC2)c1)C(C)C", "note": "[Example 66]", "inhibition at 10 µM": 38.3}
{"molecule": "CCN(CC)CCNC(=O)c1cc(F)ccc1OC/C=C(\\C)CCC=C(C)C", "note": "[Example 35]", "inhibition at 10 µM": 105}
{"molecule": "CCN(CC)CCNC(=O)c1cc(OCC=C(C)C)ccc1OCC=C(C)C", "note": "[Example 21]", "inhibition at 10 µM": 100}
{"molecule": "CC(C)=CCC/C(C)=C/COc1ccc(C(=O)NCCN(C(C)C)C(C)C)cn1", "note": "[Example 51]", "inhibition at 10 µM": 94.7}
